Experimental data as given in patent US11707437B2, “Topical formulations with resiniferatoxin nanoparticles and methods” (priority 2019, dated 2023).

How the values were obtained:
[1] = system: TRPV1 positive peripheral terminals; conditions: local intra-dermal administration, rodents; cited from earlier work
[2] = intraperitoneally in rats, over a period of 9 months; cited from earlier work
[3] = system: TRPV1 expressing nerve terminals; conditions: intrathecal administration, STZ-induced diabetes; cited from earlier work
TRPV1 receptor = TRPV1 receptor (Homo sapiens, UniProt Q8NER1); conditions: cited from earlier work
Chain of TRPV1 receptor (Q8NER1 whole entry): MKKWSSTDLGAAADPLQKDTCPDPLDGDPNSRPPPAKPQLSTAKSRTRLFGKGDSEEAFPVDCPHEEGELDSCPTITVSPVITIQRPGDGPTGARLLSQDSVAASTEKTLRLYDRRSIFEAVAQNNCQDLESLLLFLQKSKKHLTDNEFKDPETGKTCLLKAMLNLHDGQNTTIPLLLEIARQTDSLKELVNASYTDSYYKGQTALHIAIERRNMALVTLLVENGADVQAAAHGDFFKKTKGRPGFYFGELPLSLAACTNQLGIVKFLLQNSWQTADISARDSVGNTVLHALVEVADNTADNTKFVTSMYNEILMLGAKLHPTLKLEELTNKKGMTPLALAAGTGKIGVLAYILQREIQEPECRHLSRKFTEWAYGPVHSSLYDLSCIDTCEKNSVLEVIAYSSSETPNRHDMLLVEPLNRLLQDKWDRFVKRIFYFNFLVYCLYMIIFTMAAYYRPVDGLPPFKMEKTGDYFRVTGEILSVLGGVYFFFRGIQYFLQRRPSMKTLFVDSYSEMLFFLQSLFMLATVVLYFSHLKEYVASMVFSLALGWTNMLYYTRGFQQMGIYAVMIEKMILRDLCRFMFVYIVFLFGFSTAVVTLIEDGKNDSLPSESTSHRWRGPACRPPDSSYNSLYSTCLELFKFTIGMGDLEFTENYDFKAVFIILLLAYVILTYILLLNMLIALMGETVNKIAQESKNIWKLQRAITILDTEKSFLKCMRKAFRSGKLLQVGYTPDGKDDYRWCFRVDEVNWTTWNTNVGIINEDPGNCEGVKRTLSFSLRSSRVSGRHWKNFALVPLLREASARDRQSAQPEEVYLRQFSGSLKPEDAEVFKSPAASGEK

TRPV1 ion channel = TRPV1 ion channel (UniProt O35433); experiment: patch clamp current recordings from HEK cells stably expressing TRPV1; assay type: cell-based; conditions: for reversibility of current response by washout: FIG. 3
Procedure: Y axis is current amplitude and X-axis is time indicated by a 2 min bar.

Row | SMILES | pain sensitivity [1] | dose administered without observable side effects [2] [mg/kg] | effect on thermal hyperalgesia [3] | concentrations that fully activate TRPV1 receptor (TRPV1 receptor) | current activation (TRPV1 ion channel; 7.9 fM to 15.8 pM, after 100 nM capsaicin, rate of activation concentration dependent) | reversibility of current response by washout (TRPV1 ion channel; RTX 7.9 fM) | concentrations activating TRPV1 ion channels relative to capsaicin (TRPV1 ion channel; RTX at fM to pM concentrations, FIG. 2) | reversibility of current response by washout (TRPV1 ion channel; capsaicin 100 nM)
1 | C=C(C)[C@]12C[C@@H](C)[C@@]34O[C@](Cc5ccccc5)(O[C@@H]1[C@@H]3C=C(COC(=O)Cc1ccc(O)c(OC)c1)C[C@]1(O)C(=O)C(C)=C[C@@H]41)O2 [RTX, Resiniferatoxin] | complete loss of pain sensitivity | ≤ 0.2 | reversed thermal hyperalgesia | femtomolar-picomolar range | activated currents maximally | could not be reversed by washout | five to nine orders of magnitude lower than capsaicin | 
2 | COc1cc(CNC(=O)CCCC/C=C/C(C)C)ccc1O [capsaicin] |  |  |  |  |  |  |  | could be reversed by washout
